# Measured values as given in patent US10004816B2, “X-ray imaging contrast media with low iodine concentration and X-ray imaging process” (GE HEALTHCARE AS, priority 2012, dated 2018).
# Columns and labels:
# [1] = Aorta contrast to noise ratio (CNR), arterial phase contrast enhanced abdominal CT; assay type: in vivo, minipig; conditions: for FBP [CNR]: 320 mg I/ml, 120 kVp, SoC
# Procedure: (§1) Three studies were carried out in two anaesthetized minipigs (abdominal maximum and minimum diameters approximately 36 cm and 20 cm, respectively). Minipigs were imaged on a Discovery CT 750 HD. Compositions of 160 mg I/ml and 200 mg I/ml Ioforminol were prepared. The 160 mg I/ml formulation included a sodium concentration of 82 mM and a calcium concentration of 0.9 mM. The 200 mg I/ml formulation included a sodium concentration of 73 mM and a calcium concentration of 0.8 mM. For human formulations the calcium concentration is likely to be slightly lower, providing an optimized Na/Ca ratio of 110-120. The Ioforminol formulations (2 ml/kg) were injected at a rate of 2 ml/s into a jugular vein, followed by a 20 ml saline flush at the same injection rate.
# (§2) For comparison, Ioforminol at a concentration of 320 mg I/ml and 120 kVp tube voltage was administered to represent the current standard of care (SoC) imaging in man. SoC scans were compared to scans performed with either […] or 200 mg I/ml contrast concentration in the same pig, with at least a 2 day washout period between each scanning session. Automated tube current modulation was used with a noise index level of 23 (SoC) and a tube rotation time of 0.7 s. Post-contrast CT images were acquired during the arterial phase, the portal venous phase, the venous phase and the late phase. Image reconstruction was done by (1) FBP, (2) ASiR 60% and (3) Veo. Pixel size was 0.703 mm×0.703 mm×2.5 mm.
# (§3) Iodine contrast enhancement was assessed by measuring the mean x-ray attenuation values (in HUs) within circular region of interests (ROIs). ROIs were placed in both aorta and muscle (quadratus lumborum) in arterial phase images and in the liver in venous phase images. See Tables 1-6 and corresponding FIGS. 1-6. The aorta contrast to noise ratio (CNR) was calculated as the difference in signal between the aorta and muscle, divided by the noise in muscle. The liver signal to noise ratio (SNR) was calculated as the ratio of the mean liver attenuation and the standard deviation (SD).
# [2] = Liver signal to noise ratio (SNR), venous phase contrast enhanced abdominal CT; assay type: in vivo, minipig; conditions: for FBP [SNR]: 320 mg I/ml, 120 kVp, SoC
# Procedure: as §1, §2, §3
# [3] = Viscosity of Ioforminol compositions; assay type: physicochemical; conditions: 20° C.
# Procedure: For X-ray diagnostic compositions which are administered by injection or infusion, the desired upper limit for the solution's viscosity at ambient temperature (20° C.) is generally about 30 mPas, however viscosities of up to 50 to 60 mPas and even more than 60 mPas are seen. With the low concentration of iodine in the composition of the invention the viscosity is below 10 mPas at 20° C., and this is even considerably lower at the lower end of the iodine concentration range. […] For comparison a 320 mg I/ml composition of Ioforminol has a viscosity of 28 mPas (at 20° C.). Particularly, for a 160 mg I/ml composition of Ioforminol the viscosity is only 2.9 mPas (at 20° C.), and for a 200 mg I/ml composition the viscosity is 4.7 mPas (20° C.). […] Such low viscosity has the advantage that the composition is easy to administer and the administration can be done more quickly with a higher volume per time unit, particularly as the injection pressure needed is considerably lower than with compositions with higher viscosities. The lower viscosity enables a reduction in the needle- or catheter diameter down to about 63% of the original diameter without effecting flow rate or injection pressure. As a consequence a hand-held syringe can be used rather than an autoinjector.
# [4] = Average cluster size in solution; assay type: physicochemical
# Source text: By intermolecular interactions the contrast media molecules form clusters that are continuously formed and broken up and the average cluster size may be described by a formation/destruction equilibrium. Ioforminol has an increased tendency to form clusters and in water at high concentration an average size of 4 molecules per cluster is predominating, whereas Iodixanol under similar conditions have a mean cluster size of 2.5 molecules. […] The cluster size affects the osmolality of the solution and larger clusters are reflected in a lower osmolality. The non-ideal behaviour of high concentration solutions permits the addition of physiological electrolytes to achieve isotonicity. […] This non-ideal behaviour persistent also at low concentrations enables the addition of physiological electrolytes to the current formulations.
# [5] = 160 mg I/ml, 80 kVp, CTDIvol 5.2 mGy, FIG. 2
# [6] = 200 mg I/ml, 80 kVp, CTDIvol 6.9 mGy, FIG. 1
# [7] = 200 mg I/ml, 100 kVp, CTDIvol 5.2 mGy, FIG. 3
# [8] = 160 mg I/ml, 80 kVp, CTDIvol 5.2 mGy, FIG. 5
# [9] = 200 mg I/ml, 80 kVp, CTDIvol 6.9 mGy, FIG. 4
# [10] = 200 mg I/ml, 100 kVp, CTDIvol 5.2 mGy, FIG. 6
smiles,measurement,setting,value
"O=CN(CC(O)CN(C=O)c1c(I)c(C(=O)NCC(O)CO)c(I)c(C(=O)NCC(O)CO)c1I)c1c(I)c(C(=O)NCC(O)CO)c(I)c(C(=O)NCC(O)CO)c1I (centres unmarked) [Ioforminol, 5,5′-((2-hydroxypropane-1,3-diyl)bis(formylazanediyl))bis(N1,N3-bis(2,3-dihydroxypropyl)-2,4,6-triiodoisophthalamide)]",ASiR 60% [CNR],[1]; [5],15.1
same,Veo [CNR],[1]; [5],32.1
same,ASiR 60% [CNR],[1]; [6],23
same,Veo [CNR],[1]; [6],46.7
same,ASiR 60% [CNR],[1]; [7],17.7
same,Veo [CNR],[1]; [7],33.2
same,FBP [CNR],"[1]; CTDIvol 7.4 mGy, FIG. 2 and 3",16.9
same,FBP [CNR],"[1]; CTDIvol 9.8 mGy, FIG. 1",17.7
same,ASiR 60% [SNR],[2]; [8],7.7
same,Veo [SNR],[2]; [8],15.1
same,ASiR 60% [SNR],[2]; [9],9.5
same,Veo [SNR],[2]; [9],16.7
same,ASiR 60% [SNR],[2]; [10],7.9
same,Veo [SNR],[2]; [10],13.1
same,FBP [SNR],"[2]; CTDIvol 7.4 mGy, FIG. 5 and 6",8.2
same,FBP [SNR],"[2]; CTDIvol 9.8 mGy, FIG. 4",7.7
same,viscosity,[3]; 160 mg I/ml composition,2.9 mPas
same,viscosity,[3]; 200 mg I/ml composition,4.7 mPas
same,viscosity,[3]; 320 mg I/ml composition,28 mPas
same,average cluster size,[4]; in water at high concentration,4 molecules per cluster
same,average cluster size,[4]; low concentrations,2-3 molecules per cluster
"CC(=O)N(CC(O)CN(C(C)=O)c1c(I)c(C(=O)NCC(O)CO)c(I)c(C(=O)NCC(O)CO)c1I)c1c(I)c(C(=O)NCC(O)CO)c(I)c(C(=O)NCC(O)CO)c1I (centres unmarked) [Iodixanol, iodixanol, reference compound]",average cluster size,[4]; in water at high concentration,2.5 molecules per cluster
same,average cluster size,[4]; low concentrations,no longer present
